Source: publication PMC12416277, “Phytochemical alkaloids orchestrate immunometabolism against viral infections” (National Science Review, 2025)

How the values were obtained:
[1] = system: H1N1; assay: H1N1 NP protein in A549 cells (confocal microscopy, immunoblotting); format: cell-based, influenza virus A (H1N1)
Protocol: Cells were lysed in lysis buffer and the protein concentrations were determined using the BCA Protein Assay Kit. Subsequently, the protein samples were separated by SDS-PAGE electrophoresis and transferred to nitrocellulose (NC) membranes, and blocked in 5% skim milk for 1 h at room temperature. Following an overnight incubation at 4°C with specific primary antibodies, the membranes were exposed to the appropriate HPR-conjugated antibodies and visualized using enhanced chemiluminescence.
Cells were fixed with 4% PFA for 20 min, permeabilized with 0.2% Triton X-100 for 20 min, and blocked in 5% BAS for 1 h. After incubating with primary antibodies at 4℃ overnight, fluorescent secondary antibodies (Alexa-488, Alexa-594, Alexa-647) were added at RT for 1 h. Confocal microscopy analyses were carried out using Olympus FV3000 confocal microscope, and Leica TCS SP8 confocal microscope. […] Cells were then analyzed for Filipin staining signals by microscopy in the DAPI channel. […] Cells were then analyzed for signals by microscopy in the AF647 channel.
Figure S2. […] P values were calculated using one-way ANOVA.

[2] = system: EMCV; format: cell-based, encephalomyocarditis virus (EMCV)
[3] = system: EMCV; format: cell-based, encephalomyocarditis virus (EMCV); remark: listed apart in the source
[4] = system: H1N1; assay: H1N1 mRNA in WT, TPCN1-/-, TPCN2-/- A549 cells or with nimodipine, qRT-PCR; format: cell-based, influenza virus A (H1N1)
[5] = system: A549 cells; format: cell-based
[6] = system: A549 cells; assay: Confocal analysis of filipin-stained cholesterol distribution in A549 cells; format: cell-based
[7] = system: IFN-β; assay: IFN-β secretion in MEF cells (ELISA); format: cell-based
[8] = system: TBK1, STAT1 and STAT2 phosphorylation; assay: Immunoblotting of p-TBK1, p-STAT1, p-STAT2 in THP-1 and MEF cells; format: cell-based; details: THP-1, MEF cells
[9] = system: STING-dependent antiviral immune pathway; format: cell-based
[10] = system: STING; assay: DMXAA-stimulated WT or Sting-/- MEF cells, Ifnb1, Ifi44, Ccl5, Cxcl10 mRNA; format: cell-based, mouse
[11] = system: VSV; format: cell-based, vesicular stomatitis virus (VSV)
[12] = target: T1, NPC1 (Homo sapiens, UniProt O15118); assay: Bio-Tet streptavidin pull-down from cell lysates; format: binding
T1 sequence (O15118 23-1278): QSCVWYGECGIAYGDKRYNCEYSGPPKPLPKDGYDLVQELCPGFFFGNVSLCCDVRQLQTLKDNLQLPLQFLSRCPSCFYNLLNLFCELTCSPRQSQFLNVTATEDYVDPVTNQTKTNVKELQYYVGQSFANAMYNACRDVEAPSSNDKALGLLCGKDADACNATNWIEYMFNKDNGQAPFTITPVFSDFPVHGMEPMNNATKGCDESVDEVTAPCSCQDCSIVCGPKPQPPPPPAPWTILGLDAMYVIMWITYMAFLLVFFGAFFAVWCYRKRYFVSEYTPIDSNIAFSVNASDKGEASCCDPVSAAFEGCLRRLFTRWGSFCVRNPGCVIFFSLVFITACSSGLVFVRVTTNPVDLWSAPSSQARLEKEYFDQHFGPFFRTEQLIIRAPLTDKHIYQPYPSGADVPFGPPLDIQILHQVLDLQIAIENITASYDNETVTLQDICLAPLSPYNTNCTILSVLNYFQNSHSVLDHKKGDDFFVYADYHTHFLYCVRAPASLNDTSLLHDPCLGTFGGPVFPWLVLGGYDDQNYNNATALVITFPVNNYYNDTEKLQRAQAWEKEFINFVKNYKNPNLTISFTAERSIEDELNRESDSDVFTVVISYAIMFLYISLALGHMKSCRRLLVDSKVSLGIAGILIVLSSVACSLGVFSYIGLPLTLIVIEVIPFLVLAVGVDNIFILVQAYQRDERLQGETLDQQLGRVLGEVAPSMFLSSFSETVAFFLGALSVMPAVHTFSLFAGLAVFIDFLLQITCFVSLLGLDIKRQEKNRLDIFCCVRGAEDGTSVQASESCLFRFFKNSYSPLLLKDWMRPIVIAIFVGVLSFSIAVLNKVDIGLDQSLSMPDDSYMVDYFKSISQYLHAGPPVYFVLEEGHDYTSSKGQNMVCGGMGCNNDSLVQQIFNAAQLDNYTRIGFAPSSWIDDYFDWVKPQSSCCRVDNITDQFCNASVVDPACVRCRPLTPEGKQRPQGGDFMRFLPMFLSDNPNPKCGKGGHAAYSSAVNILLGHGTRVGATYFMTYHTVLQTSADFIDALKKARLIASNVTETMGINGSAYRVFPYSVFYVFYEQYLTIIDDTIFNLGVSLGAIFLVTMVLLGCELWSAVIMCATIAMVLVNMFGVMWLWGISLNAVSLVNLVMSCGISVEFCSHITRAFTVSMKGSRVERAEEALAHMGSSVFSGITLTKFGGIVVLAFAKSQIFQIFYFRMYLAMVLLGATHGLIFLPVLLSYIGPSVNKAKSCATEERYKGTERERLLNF

[13] = system: A549 cells; assay: Transcriptome analysis (RNA-seq, GO, GSEA) of compound-treated A549 cells; details: WT A549 cells, compared among Tet, Fan, Cep, Bbm

## COc1ccc2cc1Oc1ccc(cc1)C[C@H]1c3cc(c(OC)cc3CCN1C)Oc1c(OC)c(OC)cc3c1[C@H](C2)N(C)CC3 [Tet, tetrandrine]
[1]
  H1N1 NP protein expression: effectively reduced
  cytopathic effects: without causing cytopathic effects
[2]
  EMCV infection: effectively suppressed
[3]
  EMCV attachment: without affecting virus attachment
  EMCV infection during entry or post-entry stages: inhibited
[4]
  H1N1 replication: suppressed
[4]; with nimodipine treatment
  antiviral efficacy: remained unchanged
[5]
  intracellular cholesterol levels: higher intracellular cholesterol levels
[6]
  cholesterol distribution / lysosomal cholesterol accumulation: shifting it from the plasma membrane to endosomal and lysosomal compartments
[7]
  IFN-β production: induced
[8]
  phosphorylation of TBK1, STAT1 and STAT2: increased the phosphorylation of TBK1, STAT1 and STAT2 in a time- and dose-dependent manner
[9]
  IFNB1 and ISGs gene expression: significantly increased
[10]; DMXAA treated Sting-/- MEF cells
  Ifnb1, Ifi44, Ccl5 and Cxcl10 gene expression: abolished
[10]; DMXAA treated WT MEF cells
  Ifnb1, Ifi44, Ccl5 and Cxcl10 gene expression: increased
[11]
  antiviral effect and boosted ISGs: significantly attenuated
[12]
  competition of Bio-Tet/NPC1 interaction: competitively inhibited
[13]
  expression of antiviral immune-related genes: higher expression
